Experimental data: patent US20040013649A1, “Cancer vaccines and methods of using the same” (Inex Pharmaceuticals Corporation, priority 2002, published 2004)
Entries after “also recorded” stand apart in the source; their conditions may differ. [5mC] = 5-methylcytosine

Columns and labels:
[1] = tested on: dendritic cells; experiment: activation of dendritic cells (CD86 co-expression); format: in vivo, ICR mice; details: lipid encapsulated, single i.v. injection 20 mg/kg, versus PBS control = 100%
Experimental: (§1) ICR mice were immunized with a single intravenous injection of encapsulated oligonucleotides at a dose of 20 mg/kg and the control ICR mouse was injected with PBS. […] Each of these markers are specific to dendritic cells though they may represent different cell sub-populations. In each of FIGS. 4 and 5 the control was plotted as equivalent to 100% and the effect of ODN1m for each backbone configuration was plotted as a percentage of that control.
On collection of the samples the cells were first analyzed by flow cytometry for the co-expression of CD86, which indicates cell activation, and the dendritic cell phenotype markers CD11c and DEC205. The percentage of activated dendritic cells was plotted against a PBS control equivalent to 100%. […] Similar results are shown when measuring DEC205 positive dendritic cells in FIG. 5 panels.

[2] = tested on: dendritic cells, NK cells, and CD8+ T-cells; experiment: cytokine release assay after subcutaneous immunization; format: in vivo, C57BI/6 mice; details: lipid encapsulated; 100 μg ODN + 20 μg antigen s.c. q7d×3; FIGS. 10 and 11
Experimental: To monitor immunological response to subcutaneous immunization, antigen specific cellular immune responses were monitored using MHC Class.l-tetramer analyses, cytotoxicity assays and cytokine release assays while humoral immune responses were monitored by measuring plasma antibody levels. Cellular and humoral responses were assessed in C57BI/6 and Balb/C mice respectively (5 animals per group). For analysis of the cellular response, mice were immunized subcutaneously with 3 injections on a q7d×3 dosing regimen on Days 0, 7 and 14 at a dose of 100 μg oligonucleotide in combination with 20 μg of antigen . The spleen, liver, lymph node and blood tissues were collected on Day 21. Solid tissues were mechanically dissociated and cells were processed to collect mononuclear cells. […]
The aim of the cytokine release assay is to detect antigen-specific immune effector cells that are activated to produce and secrete cytokines, specifically IFN-γ, in response to stimulation with a specific antigen. Cells were isolated from the spleen, liver, blood and lymph nodes of immunized animals and analyzed using the Cytokine Secretion Assay (Miltenyi Biotec). […] Cells were then labeled with fluorescently labeled antibodies against IFN-γ and various phenotype markers and analyzed by flow cytometry to allow detection of specific cell types that were activated to secrete IFN-γ. […]

[3] = tested on: E.G7-OVA; experiment: prophylactic efficacy of OVA / OVA257-264 vaccination, E.G7-OVA model; format: in vivo, C57/BL6 mice; details: LNA (encapsulated) forms; FIG. 35
Experimental: Vaccinations. B6 mice were vaccinated subcutaneously (SC) with […] per injection. Dosing schedules were either q7dx2 or q4dx4 and are indicated in the individual figure legends. CFA mixtures were very viscous and had to be given with a larger gauge syringe. For humoral studies, a prime (day 0) and boost (day 14) strategy was used and blood samples were collected at various times by tail nicking.
Efficacy studies. E.G7-OVA or EL-4 thymoma cell lines were used throughout the study. These cells were cultured in vitro according to established methods. For tumor studies, 2.5×106 E.G7-OVA cells were injected subcutaneously in […] of PBS containing 1% FCS. Tumor measurements were made by repeated perpendicular measurements of tumor dimensions and using the formula: […]
Full-length OVA and the immunodominant cytotoxic T lymphocyte (CTL) peptide epitope (OVA257-264) were used to evaluate cell mediated immune responses and the prophylactic and therapeutic efficacy of OVA vaccination against the E.G7-OVA transfected cell line, using LNA both as an adjuvant and as the basis for a cancer vaccine formulation. LNA formulations for this experiment were prepared using DSPC:Chol:DODAP:PEGCer14 at a ration of 25:45:20:10
The anti-tumor activity of OVA and OVA257-264 were examined against the murine thymoma cell line, E.G7-OVA, implanted subcutaneously (SC) in C57/BL6 mice. […] Given the activity observed with the protein or peptide alone, this dose and schedule represents a useful model to evaluate adjuvants designed to boost the immune response against OVA and/or OVA257-264.
To examine LNA formulations as adjuvants, the impact of three variables were evaluated on vaccination and efficacy in the prophylactic E.G7-OVA model: (1) the activity of free vs. encapsulated ODN 1, (2) phosphodiester (PO) vs phosphorothioate (PS) ODN, and (3) full-length OVA protein vs single-epitope peptide OVA257-264 (FIGS. 30A and B). In this set of studies, free and encapsulated ODN 1 was simply mixed with antigen and administered SC near the nape of the neck. ODN and antigen doses in these studies were […], respectively.

[4] = tested on: B16/BL6 murine melanoma; experiment: therapeutic anti-tumor efficacy, B-16 melanoma tumor model; format: in vivo, C57BI/6 mice; details: lipid encapsulated (DSPC:CHOL:DODAP:PEGCer14); 20 mg/kg ODN i.v. every other day from day 4
Experimental: Anti-tumor efficacy induced by intravenous tail immunization was assessed in C57BI/6 (8 animals per group) in a therapeutic immunization model. Animals were challenged with a subcutaneous injection of 3.0×10^5 […] B16/BL6 murine melanoma expressing tumor cells on Day-0. Mice were then treated intravenously every other day starting on day 4 for 14 days at a dose of 20 mg/kg ODN. Mice were monitored every other day to assess tumor growth and weight gain. Control mice were injected with HBS on the same schedule described above. Oligonucleotides were encapsulated in a lipid particle having a lipid composition of DSPC: CHOL: DODAP:PEGCer14 each in a ratio of 25:45:20:10. Results from this efficacy experiments are detailed in FIGS. 16 and 17. Day 0 on each of the Figures is the day each animal was challenged with the tumor.

[5] = tested on: dendritic cells; experiment: expansion of dendritic cells (CD11c, DEC205) in spleen, blood and lymph nodes; format: in vivo, ICR mice; details: lipid encapsulated; single i.v. injection 20 mg/kg; versus PBS control = 100%; 20 mg/kg
Experimental: as §1

ODN1m: 5′-TAAZGTTGAGGGGCAT-3, SEQ ID NO: 4, Z = methylated cytosine (DNA TAACGTTGAGGGGCAT; DNA, [5mC] at 4, backbone not given here; tested with both phosphodiester and phosphorothioate backbones)
CD86 expression on dendritic cells [1]: induced CD86 expression on CD11c positive dendritic cells; also recorded: more active than the unmethylated counterpart ODN1 | immune stimulation (cytokine secretion of dendritic cells, NK cells, CD8+ T-cells), methylated normalized to unmethylated ODN [2]: consistently at least equivalent to, and often better than | efficacy of ODN sequences [3]: strongest responses | reduction of tumor volume [4]: increased its efficacy in reducing tumor volume | expansion of CD11c positive dendritic cells [5]: stimulated the expansion of CD11c positive dendritic cells in spleen cells and whole blood cells but not in lymphoid tissue; also recorded: stimulated the expansion of CD11c positive cells in spleen and whole blood
